The conditions of data set [1]: Crystal; DTA.
Data set [2] is described as follows: Molar enthalpy of transition or fusion. The note with it: Crystal; DSC.

Numbers after ± are expanded uncertainties.

Turning to `O=C(Nc1ccccc1-c1ccc(Cl)cc1)c1cccnc1Cl` [Boscalid], the Normal melting temperature in data set [1] worked out at 146.73 ± 0.61 °C. Besides, in data set [2], the “Molar enthalpy of transition or fusion” value was 8.9 ± 0.335 kcal/mol.

The record behind these values is the NIST ThermoML archive (doi:10.1016/j.jct.2017.04.017).
